# From US20070185161A1, “Bicyclic substituted indole-derivative steroid hormone nuclear receptor modulators” (priority 2004, published 2007)
# Target: T1, human MR (Homo sapiens, UniProt P08235)
# T1 construct: The full length human MR gene is cloned from a human kidney or human brain cDNA library; made in house; host or cells: SF9 insect cells (baculovirus)
# T1 sequence (P08235 1-984): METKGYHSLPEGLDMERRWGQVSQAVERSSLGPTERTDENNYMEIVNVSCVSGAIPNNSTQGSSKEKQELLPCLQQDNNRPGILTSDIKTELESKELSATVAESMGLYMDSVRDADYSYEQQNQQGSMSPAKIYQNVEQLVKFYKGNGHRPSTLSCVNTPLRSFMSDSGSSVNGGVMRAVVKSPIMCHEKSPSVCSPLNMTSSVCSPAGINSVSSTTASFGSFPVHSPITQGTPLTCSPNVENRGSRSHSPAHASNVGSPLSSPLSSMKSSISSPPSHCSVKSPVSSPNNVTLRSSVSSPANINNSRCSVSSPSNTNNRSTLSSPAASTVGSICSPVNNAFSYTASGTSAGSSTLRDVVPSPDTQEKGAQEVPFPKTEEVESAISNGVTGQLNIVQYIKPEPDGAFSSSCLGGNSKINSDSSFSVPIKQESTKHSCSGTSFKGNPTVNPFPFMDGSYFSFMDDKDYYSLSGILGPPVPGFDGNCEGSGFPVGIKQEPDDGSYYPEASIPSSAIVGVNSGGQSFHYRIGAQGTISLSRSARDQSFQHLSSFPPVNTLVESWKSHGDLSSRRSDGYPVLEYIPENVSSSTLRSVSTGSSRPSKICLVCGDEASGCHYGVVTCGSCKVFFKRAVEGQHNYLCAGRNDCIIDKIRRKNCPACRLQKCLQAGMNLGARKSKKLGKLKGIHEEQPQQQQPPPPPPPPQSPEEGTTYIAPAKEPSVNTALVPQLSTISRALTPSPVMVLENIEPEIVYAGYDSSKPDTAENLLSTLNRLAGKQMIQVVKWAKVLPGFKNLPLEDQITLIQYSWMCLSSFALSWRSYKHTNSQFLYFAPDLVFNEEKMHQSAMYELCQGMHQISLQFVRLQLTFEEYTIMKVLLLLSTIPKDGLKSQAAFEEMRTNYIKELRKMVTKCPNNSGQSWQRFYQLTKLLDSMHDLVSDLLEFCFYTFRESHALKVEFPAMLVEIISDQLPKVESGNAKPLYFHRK
# Assay: Mineralocorticoid Receptor Binding Assay (Method 1)
# Conditions: [3H]-aldosterone, racemic mixture unless otherwise indicated
# Outline: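 Lysate of Sf9 cells expressing baculovirus full-length human MR (20-25 μg protein) incubated with 0.5 nM [3H]-aldosterone and test compound, pH 7.5 molybdate buffer, 16 h at 4 °C. Bound ligand collected by filtration and counted by scintillation. IC50 for displacement; Ki by Cheng-Prusoff.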
row,Ki,Compound
1,≤ 500 nM,"CS(=O)(=O)Nc1cccc2c(C3(C4CC4)CCc4cc(F)ccc43)c[nH]c12 (single isomer, unassigned) [Example 39B, N-[3-(1-Cyclopropyl-5-fluoro-indan-1-yl)-1H-indol-7-yl]-methanesulfonamide]"
2,≤ 500 nM,"CC1(c2c[nH]c3c(NS(C)(=O)=O)cccc23)CCOc2ccccc21 (stereo not drawn) [Example 32, N-[3-(4-Methyl-chroman-4-yl)-1H-indol-7-yl]-methanesulfonamide]"
3,≤ 500 nM,"CS(=O)(=O)Nc1cccc2c(C3(CCCO)CCc4cc(F)ccc43)c[nH]c12 (single isomer, unassigned) [Example 40A, N-{3-[5-Fluoro-1-(3-hydroxy-propyl)-indan-1-yl]-1H-indol-7-yl}-methanesulfonamide]"
